Laboratory results taken from PubChem BioAssay AID1963428 (Molecular Pharmacology Branch, DTP, NCI, 2024).

System: 171881-019-R-J1-PDC complex spheroid growth, % test/control
Assay: Anticancer human tumor 171881-019-R-J1-PDC patient-derived invasive breast carcinoma cell line growth inhibition [Asc]
Conditions: for IC50: curve of first compound; for viability, T/C: stronger effect = lower value
Summary of the method: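 Spheroid model: tumor line + HUVEC + hMSC. Single agents and combinations; top conc. at/near clinical Cmax (10 microM if undetermined), half-log dilutions. DMSO stocks at 800-fold test concentration.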

[1] = second compound 0.1 µM, first compound 0.0316 µM
[2] = second compound 0.1 µM, first compound 0.1 µM
[3] = second compound 0.1 µM, first compound 0.316 µM
[4] = second compound 0.1 µM, first compound 1 µM
[5] = second compound 0.1 µM, first compound 3.16 µM
[6] = second compound 0.1 µM, first compound 10 µM
[7] = second compound 0.316 µM, first compound 0.0316 µM
[8] = second compound 0.316 µM, first compound 0.1 µM
[9] = second compound 0.316 µM, first compound 0.316 µM
[10] = second compound 0.316 µM, first compound 1 µM
[11] = second compound 0.316 µM, first compound 3.16 µM
[12] = second compound 0.316 µM, first compound 10 µM
[13] = second compound 1 µM, first compound 0.0316 µM
[14] = second compound 1 µM, first compound 0.1 µM
[15] = second compound 1 µM, first compound 0.316 µM
[16] = second compound 1 µM, first compound 1 µM
[17] = second compound 1 µM, first compound 3.16 µM
[18] = second compound 1 µM, first compound 10 µM
[19] = second compound 3.16 µM, first compound 0.0316 µM
[20] = second compound 3.16 µM, first compound 0.1 µM
[21] = second compound 3.16 µM, first compound 0.316 µM
[22] = second compound 3.16 µM, first compound 1 µM
[23] = second compound 3.16 µM, first compound 3.16 µM
[24] = second compound 3.16 µM, first compound 10 µM
[25] = second compound 10 µM, first compound 0.0316 µM
[26] = second compound 10 µM, first compound 0.1 µM
[27] = second compound 10 µM, first compound 0.316 µM
[28] = second compound 10 µM, first compound 1 µM
[29] = second compound 10 µM, first compound 3.16 µM
[30] = second compound 10 µM, first compound 10 µM
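Wherever viability, T/C is given: spheroids exposed to compounds for 7 days.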

**Q.** What does the source list for C=C(F)C(=O)N1CCN(c2nc(OCC3CCCN3C)nc3c2CCN(c2cccc4cccc(Cl)c24)C3)CC1CC#N (stereo not given) + Cc1c(S(C)(=O)=O)c(-c2cc(F)cc(N3CCN(c4ccc(NS(=O)(=O)c5ccc(NC(CCN6CCC(C(=O)OCCCP(=O)(O)O)CC6)CSc6ccccc6)c(S(=O)(=O)C(F)(F)F)c5)cc4)CC3)c2)c(-c2ccc(Cl)cc2)n1C(C)C?
**A.** IC50 (second compound 0.1 µM): 5.61 µM; IC50 (second compound 0.316 µM): 5.89 µM; IC50 (second compound 1 µM): 4.12 µM; IC50 (second compound 3.16 µM): 2.53 µM; IC50 (second compound 10 µM): 2.43 µM; viability, T/C [1]: 93.8%; viability, T/C [2]: 86.7%; viability, T/C [3]: 106%; viability, T/C [4]: 90.9%; viability, T/C [5]: 118%; viability, T/C [6]: 0.36%; viability, T/C [7]: 130%; viability, T/C [8]: 129%; viability, T/C [9]: 113%; viability, T/C [10]: 125%; viability, T/C [11]: 108%; viability, T/C [12]: 0.3%; viability, T/C [13]: 124%; viability, T/C [14]: 136%; viability, T/C [15]: 133%; viability, T/C [16]: 131%; viability, T/C [17]: 64.8%; viability, T/C [18]: 0.25%; viability, T/C [19]: 161%; viability, T/C [20]: 149%; viability, T/C [21]: 144%; viability, T/C [22]: 185%; viability, T/C [23]: 23.6%; viability, T/C [24]: 0.3%; viability, T/C [25]: 179%; viability, T/C [26]: 191%; viability, T/C [27]: 196%; viability, T/C [28]: 202%; viability, T/C [29]: 15.2%; viability, T/C [30]: 0.27%

**Q.** Which results are given for C=CC(=O)N1CCN(c2nc(=O)n(-c3c(C)ccnc3C(C)C)c3nc(-c4c(O)cccc4F)c(F)cc23)C(C)C1 (stereo not given) + Cc1c(S(C)(=O)=O)c(-c2cc(F)cc(N3CCN(c4ccc(NS(=O)(=O)c5ccc(NC(CCN6CCC(C(=O)OCCCP(=O)(O)O)CC6)CSc6ccccc6)c(S(=O)(=O)C(F)(F)F)c5)cc4)CC3)c2)c(-c2ccc(Cl)cc2)n1C(C)C?
**A.** IC50 (second compound 0.1 µM): > 10 µM; IC50 (second compound 0.316 µM): > 10 µM; IC50 (second compound 1 µM): > 10 µM; IC50 (second compound 3.16 µM): > 10 µM; IC50 (second compound 10 µM): > 10 µM; viability, T/C [1]: 92.3%; viability, T/C [2]: 111%; viability, T/C [3]: 100%; viability, T/C [4]: 86%; viability, T/C [5]: 84.9%; viability, T/C [6]: 79.6%; viability, T/C [7]: 128%; viability, T/C [8]: 114%; viability, T/C [9]: 118%; viability, T/C [10]: 86.9%; viability, T/C [11]: 78.9%; viability, T/C [12]: 87.7%; viability, T/C [13]: 119%; viability, T/C [14]: 123%; viability, T/C [15]: 125%; viability, T/C [16]: 104%; viability, T/C [17]: 78.7%; viability, T/C [18]: 90.9%; viability, T/C [19]: 153%; viability, T/C [20]: 122%; viability, T/C [21]: 138%; viability, T/C [22]: 133%; viability, T/C [23]: 99.2%; viability, T/C [24]: 99%; viability, T/C [25]: 165%; viability, T/C [26]: 186%; viability, T/C [27]: 165%; viability, T/C [28]: 187%; viability, T/C [29]: 133%; viability, T/C [30]: 105%

**Q.** What does the source list for CCN1C(C(=O)NC23CCC(C(=O)O)(CC2)CC3)C(c2cccc(Cl)c2F)C2(C(=O)Nc3cc(Cl)ccc32)C12CCCCC2 (stereo not given) + Cc1c(S(C)(=O)=O)c(-c2cc(F)cc(N3CCN(c4ccc(NS(=O)(=O)c5ccc(NC(CCN6CCC(C(=O)OCCCP(=O)(O)O)CC6)CSc6ccccc6)c(S(=O)(=O)C(F)(F)F)c5)cc4)CC3)c2)c(-c2ccc(Cl)cc2)n1C(C)C?
**A.** IC50 (second compound 0.1 µM): > 3 µM; IC50 (second compound 0.316 µM): > 3 µM; IC50 (second compound 1 µM): > 3 µM; IC50 (second compound 3.16 µM): > 3 µM; IC50 (second compound 10 µM): > 3 µM; viability, T/C (second compound 0.1 µM, first compound 0.00949 µM): 82.5%; viability, T/C (second compound 0.1 µM, first compound 0.03 µM): 107%; viability, T/C (second compound 0.1 µM, first compound 0.0949 µM): 102%; viability, T/C (second compound 0.1 µM, first compound 0.3 µM): 90.5%; viability, T/C (second compound 0.1 µM, first compound 0.949 µM): 105%; viability, T/C (second compound 0.1 µM, first compound 3 µM): 120%; viability, T/C (second compound 0.316 µM, first compound 0.00949 µM): 100%; viability, T/C (second compound 0.316 µM, first compound 0.03 µM): 110%; viability, T/C (second compound 0.316 µM, first compound 0.0949 µM): 129%; viability, T/C (second compound 0.316 µM, first compound 0.3 µM): 105%; viability, T/C (second compound 0.316 µM, first compound 0.949 µM): 144%; viability, T/C (second compound 0.316 µM, first compound 3 µM): 146%; viability, T/C (second compound 1 µM, first compound 0.00949 µM): 116%; viability, T/C (second compound 1 µM, first compound 0.03 µM): 133%; viability, T/C (second compound 1 µM, first compound 0.0949 µM): 129%; viability, T/C (second compound 1 µM, first compound 0.3 µM): 117%; viability, T/C (second compound 1 µM, first compound 0.949 µM): 130%; viability, T/C (second compound 1 µM, first compound 3 µM): 167%; viability, T/C (second compound 3.16 µM, first compound 0.00949 µM): 152%; viability, T/C (second compound 3.16 µM, first compound 0.03 µM): 147%; viability, T/C (second compound 3.16 µM, first compound 0.0949 µM): 159%; viability, T/C (second compound 3.16 µM, first compound 0.3 µM): 162%; viability, T/C (second compound 3.16 µM, first compound 0.949 µM): 146%; viability, T/C (second compound 3.16 µM, first compound 3 µM): 163%; viability, T/C (second compound 10 µM, first compound 0.00949 µM): 192%; viability, T/C (second compound 10 µM, first compound 0.03 µM): 179%; viability, T/C (second compound 10 µM, first compound 0.0949 µM): 182%; viability, T/C (second compound 10 µM, first compound 0.3 µM): 185%; viability, T/C (second compound 10 µM, first compound 0.949 µM): 193%; viability, T/C (second compound 10 µM, first compound 3 µM): 172%
